Test results reported in patent US9266817B2, “Catecholamine derivatives for obesity and neurological disorders” (EMORY UNIVERSITY, priority 2009, dated 2016).

What was measured:
TrkB [1] = biological target: T1, TrkB (Rattus norvegicus, UniProt Q63604); assay: Immunofluorescent staining with anti-phospho-TrkB Y816 in primary hippocampal neurons; type: cell-based; settings: 300 nM, 30 min
T1 construct: endogenous in cells; host or cells: primary rat cortical and hippocampal neurons
Description: Primary Rat Cortical and Hippocampal Neuron Cultures
Primary hippocampal neurons were seeded on poly-L-lysine coated coverslips in a 12-well plate. After 7 days in vitro, the neurons were treated with 100 ng/ml BDNF or variety of neurotransmitters and 7,8-dihydroxyflavone compound (500 nM) for 30 min, and then washed with PBS. Cells were fixed with 3% formaldehyde in PBS at room temperature for 15 min. The cells were then permeabilized and blocked by 0.4% Triton X-100 and 2% FBS in PBS at room temperature for 15 minutes, washed with PBS three times and treated with anti-MAP2 (1:200) and anti-phospho-TrkB antibodies (1:100). After staining with FITC- or Rhodamine-conjugated secondary antibody, the coverslips were mounted on slides. Fluorescent images were taken by OLYMPUS IX71 fluorescence microscope (Olympus; Center Valley, Pa.).
(§1) To explore whether monoamine neurotransmitters, including catecholamines (see, e.g., FIG. 1), could stimulate TrkB activation, hippocampal neurons were treated with 300 nM of catecholamines, serotonin, and melatonin for 30 min.

TrkB [2] = assay: TrkB activation in mouse brain after administration of catecholamine derivatives (anti-p-TrkB-Y-816 immunoblot); type: in vivo; settings: 50 mg/kg orally (in saline), C57BL/6J mice
Description: To explore whether these compounds could stimulate TrkB in vivo, 50 mg/kg of Compound I-11, Compound I-8, and Compound I-2 (2-(methylamino)-3′,4′-dihydroxy-acetophenone) were each orally administered (in saline) to 2-month-old C57BL/6J mice. The mice were sacrificed at different time points and TrkB activation in the brains of the mice was monitored by immunoblotting with anti-p-TrkB-Y-816 antibody.
To determine the minimal required dosages for Compound I-11 and Compound I-8, different doses of the compounds were each orally administered to mice. The mice were sacrificed after 4 hours, and the brain lysates were analyzed by immunoblotting with anti-p-TrkB-Y-816 antibody.
To search for orally bioactive catecholamines, catecholamine derivatives described herein were screened using primary neuronal cultures. The in vitro active compounds, Compounds I-8 and I-11, were adminstered into two to three month old C57BL/6J mice orally, intraperitoneally, and in drinking water. For oral administration, the mice were administered 0 mg (control), 5 mg, 10 mg, 20 mg, or 50 mg of Compound I-8 or Compound I-11. After 4 hours, TrkB phosphorylation in mouse brain was monitored by analyzing the brain lysates using immunoblotting with anti-p-TrkB-Y-816 antibody. The ratios of p-TrK/total TrkB were quantified (FIG. 27A). For intraperitoneal administration, 50 mg/kg of Compound I-8 or Compound I-11 were intraperitoneally injected into the mice. The brain lysates were prepared at different times (0 hr, 1 hr, 2 hr, 4 hr, and 8 hr) and were analyzed by immunoblotting with anti-p-TrkB-Y-816 antibody (FIG. 27B). Compound I-8 and Compound I-11 were dissolved in drinking water and given to mice. After 24 h, the brain lysates were prepared and analyzed by immunoblotting with anti-p-TrkB-Y-816 antibody (FIG. 27C). […] Therefore, these compounds are useful in treating various neurological or neuropsychiatric diseases as described herein.

TrkB [3] = biological target: T1, TrkB; assay: Screening of catecholamine derivatives for TrkB activation in primary cortical neurons (anti-p-TrkB-Y-816 immunoblot); type: cell-based; settings: 500 nM, 30 min
Description: Catecholamines can directly bind to the kinase domain of the TrkB receptor and activate it. However, the catecholamines are not able to cross through the blood brain barrier. […] Cortical neurons (7 DIV cortical neurons from 18 day old Sprague Dawley rat embryos) were treated with 500 nM of the selected compound for 30 min and cell lysates were prepared. The cell lysates ([…]) were analyzed for TrkB activation by immunoblotting with anti-p-TrkB-Y-816 antibody.
Catecholamine derivatives as described herein, including Compound I-2, Compound I-5, Compound I-7, Compound I-8, Compound I-9, Compound I-10, Compound I-11, Compound I-14, Compound I-15, Compound I-17, Compound I-18, and isoproterenol, were screened for TrkB activation in primary cortical neurons. Cortical neurons (7 DIV cortical neurons from 18 day old Sprague Dawley rat embryos) were treated with 500 nM of the selected compound for 30 min and cell lysates were prepared. The cell lysates ([…]) were analyzed for TrkB activation by immunoblotting with anti-p-TrkB-Y-816 antibody.

TrkB [4] = biological target: T1, TrkB; assay: TrkB activation in cortical neurons after pretreatment with antibodies, receptor antagonists, transporter inhibitors or EDTA (anti-p-TrkB-Y-816 immunoblot); type: cell-based
Text: (§2) Both antidepressants and exercise increase hippocampal BDNF mRNA expression through enhanced 5-HT and/or NE neurotransmission (Siuciak et al., Pharmacol. Biochem. Behav., 56:131-137, 1997; Dias et al., Neuropharmacology, 45:553-563, 2003; Ivy et al., Pharmacol. Biochem. Behav., 75:81-88, 2003; Garza et al., Pharmacol. Biochem. Behav., 77:209-220, 2004). If catecholamines activated TrkB signaling indirectly by promoting BDNF generation, then scavenging BDNF with its specific antibody would be expected to diminish catecholamines-mediated activation of TrkB. Cultured cortical neurons were pretreated with BDNF-IgG for 30 minutes followed by exposure to BDNF (10 ng/ml) or catecholamines (100 nM) for 15 minutes. […] It was then determined whether catecholamines could activate TrkB in neurons cultured from mice carrying a null mutation of BDNF.
To further investigate the specificity of catecholamines in inducing TrkB activation, cortical neurons were pretreated with control IgG or norepinephrine IgG, a rabbit polyclonal antibody for norepinephrine, followed by catecholamines.
(§3) It was then determined whether catecholamines could activate TrkB in neurons cultured from mice carrying a null mutation of NET.
(§4) The cell lysates were analyzed by immunoblotting with anti-p-TrkB-Y-816.
as §4
A group of primary cortical neurons were pretreated with 1 mM EDTA, and another group of primary cortical neurons were not pretreated. Both groups of primary cortical neurons were then treated with either Zn (100 μM) or a catecholamine (100 nM) for 15 minutes. The neuronal cell lysates were analyzed by immunoblotting with anti-p-TrkB-Y-816 antibody.

TrkB [5] = type: in vivo; settings: BDNF conditional knockout mice, compared to vehicle control
TrkB [6] = biological target: T1, TrkB; assay: Immunoblotting of TrkB phosphorylation in primary cortical neurons treated with catecholamines; type: cell-based; settings: for TrkB activation (immunoblotting of neuronal lysates): primary neurons
Description: Primary cultured rat cortical neurons were prepared as follows. E17 rat pups were decapitated and cortex was extirpated, cross chopped and suspended by pipetting for separation in 5% fetal calf serum (FCS), 5% horse serum (HS) DMEM. The cell suspension was then centrifuged at 250×g for 5 min. This operation was repeated. Cells were seeded into polyethyleneimine-coated 10 cm^2 dishes and 12-well plates including coated-coverslips and incubated at 37° C. in 5% CO2/95% air. After 3 hours, the culture medium was changed to Neurobasal containing B-27 supplement (Invitrogen; Carlsbad, Calif.) and incubated for 4 days. For maintenance, half of the culture medium was changed to fresh Neurobasal/B27 in every 4 days. After 1 week, the dished cultured neurons were ready for use.
as §1

TrkB [7] = biological target: T2, TrkB (Mus musculus, UniProt P15209, F616A); type: in vivo; settings: L-DOPA 50 mg/kg, DOPS 100 mg/kg, 1NMPP1 50 μM
T2 construct: from tissue; host or cells: mouse brain
Description: The DOPS concentration was 20 mg/ml, the vitamin C concentration was 2 mg/ml, and the benserazide concentration was 5 mg/ml. The vitamin C prevents oxidation of the DOPS, and the benserazide is a peripheral inhibitor of AADC and restricts the production of NE from DOPS to the brain. The compounds were added to a tube, and 20 μl of 10 M HCl was added to each ml of DOPS solution. The appropriate amount of water was added to the tube, and then HCl was added to achieve the desired volume. For example, to make 1 mL of a DOPS solution, 20 mg DOPS, 2 mg vitamin C, and 5 mg benserazide were added to a tube, followed by 980 μL of water and 20 μL of 10 M HCl. The solution was vortexed until all DOPS was dissolved. The DOPS solution was injected subcutaneously in a volume of 50 μl/g of mouse. The appropriate amount of DOPS solution was pipetted into a clean tube, followed by the amount of 10 M NaOH required to exactly neutralize the HCl. The solution was then shaken. The amount of 10 M NaOH is the weight of the mouse in microliters. For example, for a 20 g mouse, pipet 1 ml of the DOPS solution is pipetted into a tube and 20 μL of 10 M NaOH is added. For a 30 g mouse, 1.5 mL of the DOPS solution is pipetted into a tube and 30 μl of 10 M NaOH is added. Two to four month-old TrkBF616A mice were pretreated with 1NMPP1 in drinking water (50 μM) 1 day before L-DOPA (50 mg/kg) or DOPS (100 mg/kg) intraperitoneal injection. At times of 2 hours and 5 hours after drug administration, the L-DOPA or DOPS-treated mice were sacrificed, respectively. The brain lysates were prepared and analyzed by immunoblotting against anti-phospho-TrkB Y816 and TrkA Y794 antibodies.
(§5) TrkB F616A mice were pretreated with 1NMPP1 (50 μM) before L-DOPA or DOPS administration.

TrkB [8] = biological target: T3, TrkB (Mus musculus, UniProt P15209); type: cell-based, mice; settings: compared to wild-type control neurons
T3 construct: endogenous in cells; host or cells: primary cortical neurons from BDNF-null, TrkB +/- cross, TrkC knockout and NET -/- mice
Description: as §3

TrkB F616A = biological target: T4, TrkB F616A (Mus musculus, UniProt P15209, F616A); assay: TrkB phosphorylation in TrkB F616A or TrkA F592A cortical neurons pretreated with K252a or 1NMPP1; type: cell-based, mice; settings: TrkB F616A knock-in cortical neurons
T4 construct: endogenous in cells; host or cells: primary cortical neurons from TrkB F616A knock-in mice
Description: as §5
On day 7, the primary cortical neurons were pretreated with 100 nM K252a or 1NMPP1 for 30 min, followed by 500 nM ADPP and DDAP. Cell lysates were analyzed by Western blotting.

TrkB [9] = biological target: T3, TrkB; assay: TrkB activation in cortical neurons cultured from BDNF-null mice; type: cell-based; settings: 15 min
Text: as §2

T1 sequence (Q63604 32-821): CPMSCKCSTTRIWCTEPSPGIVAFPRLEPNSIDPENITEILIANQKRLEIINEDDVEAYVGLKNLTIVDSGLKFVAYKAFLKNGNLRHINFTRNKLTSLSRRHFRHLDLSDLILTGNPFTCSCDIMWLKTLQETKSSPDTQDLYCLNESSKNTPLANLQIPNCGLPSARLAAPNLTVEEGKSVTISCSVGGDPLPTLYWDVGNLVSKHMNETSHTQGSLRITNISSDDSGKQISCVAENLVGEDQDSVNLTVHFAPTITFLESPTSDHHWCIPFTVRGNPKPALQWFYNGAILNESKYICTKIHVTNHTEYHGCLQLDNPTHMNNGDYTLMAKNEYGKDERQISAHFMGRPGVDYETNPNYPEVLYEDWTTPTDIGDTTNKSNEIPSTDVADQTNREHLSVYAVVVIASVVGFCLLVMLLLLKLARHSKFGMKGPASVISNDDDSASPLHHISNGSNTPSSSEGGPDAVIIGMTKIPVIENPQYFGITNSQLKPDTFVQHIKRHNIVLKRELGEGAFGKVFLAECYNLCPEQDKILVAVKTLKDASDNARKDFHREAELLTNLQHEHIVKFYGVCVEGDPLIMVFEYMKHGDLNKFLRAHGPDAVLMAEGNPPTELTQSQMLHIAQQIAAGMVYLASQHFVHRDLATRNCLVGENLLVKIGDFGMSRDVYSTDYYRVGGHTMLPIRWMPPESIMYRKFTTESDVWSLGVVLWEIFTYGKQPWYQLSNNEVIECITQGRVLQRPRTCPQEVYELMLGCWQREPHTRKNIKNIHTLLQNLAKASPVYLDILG
T3 sequence (P15209 32-821): as the sequence (Q63604 32-821) above, with M3T, T9S, T10A, I32V, K63R, G84S, T153M, I185L, T394S, N770S counted along it
T4 sequence (P15209 32-821 F616A): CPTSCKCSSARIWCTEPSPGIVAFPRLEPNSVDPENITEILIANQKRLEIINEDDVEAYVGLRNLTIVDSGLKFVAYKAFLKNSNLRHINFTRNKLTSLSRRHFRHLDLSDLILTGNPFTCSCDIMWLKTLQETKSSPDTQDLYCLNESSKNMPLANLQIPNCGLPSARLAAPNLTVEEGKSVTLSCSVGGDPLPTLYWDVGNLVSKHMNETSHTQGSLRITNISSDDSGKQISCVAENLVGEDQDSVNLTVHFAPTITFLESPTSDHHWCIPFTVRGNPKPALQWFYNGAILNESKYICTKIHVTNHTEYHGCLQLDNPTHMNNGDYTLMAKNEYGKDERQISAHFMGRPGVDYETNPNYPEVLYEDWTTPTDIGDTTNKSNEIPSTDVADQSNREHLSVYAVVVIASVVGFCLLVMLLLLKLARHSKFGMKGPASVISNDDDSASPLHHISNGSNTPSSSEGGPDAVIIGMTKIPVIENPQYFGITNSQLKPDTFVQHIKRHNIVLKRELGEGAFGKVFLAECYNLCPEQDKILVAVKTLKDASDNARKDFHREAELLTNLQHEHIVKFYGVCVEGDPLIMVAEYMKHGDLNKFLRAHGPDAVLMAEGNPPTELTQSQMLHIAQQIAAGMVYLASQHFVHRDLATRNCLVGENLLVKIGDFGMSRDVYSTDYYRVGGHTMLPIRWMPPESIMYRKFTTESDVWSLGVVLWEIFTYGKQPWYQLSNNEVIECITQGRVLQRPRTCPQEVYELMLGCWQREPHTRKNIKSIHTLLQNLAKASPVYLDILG
T2 sequence (P15209 32-821 F616A): as above

In the case of `O=C(O)Cc1c[nH]c2ccc(O)cc12` [Compound 5-HIAA, 5-hydroxyindoleacetic acid], the “TrkB tyrosine phosphorylation (immunofluorescent staining)” value (TrkB [1]) is reported as “had no effect”.

With `NCCc1c[nH]c2ccc(OS(=O)(=O)O)cc12` [Compound 5-HT-sulfate, 5-HT-sulfate] the “TrkB tyrosine phosphorylation (immunofluorescent staining)” value (TrkB [1]) was “had no effect”.

`CNCC(=O)c1ccc(O)c(O)c1` [Compound I-2, 2-(methylamino)-3′,4′-dihydroxy-acetophenone] was tested, and the “TrkB activation in the brains of the mice” value (TrkB [2]) was “failed to activate TrkB” and the “TrkB activation in primary cortical neurons” value (TrkB [3]) was “display activity”.

For `CN[C@@H](C(N)=O)C(=O)c1ccc(O)c(O)c1` [Compound I-7], the “TrkB activation in primary cortical neurons” value (TrkB [3]) was “display activity”.

`CN[C@@H](C(=O)N(C)C)[C@@H](O)c1ccc(O)c(O)c1` [Compound I-15] was tested, and the “TrkB activation in primary cortical neurons” value (TrkB [3]) was “display activity”.

For `O=C(O)CN(CCN(CC(=O)O)CC(=O)O)CC(=O)O` [EDTA], the “Effect of EDTA on stimulatory activity of TrkB activation by Zn” value (TrkB [4]; 1 mM EDTA, Zn 100 μM, 15 minutes) was “blocked”.

`c1ccc(CCCN2CCN(CCOC(c3ccccc3)c3ccccc3)CC2)cc1` [GBR12935] was tested, and the “Effect of inhibitor on dopamine-mediated TrkB activation” value (TrkB [4]; cortical neurons) was “significantly blocked”.

For `N[C@@H](Cc1ccc(O)c(O)c1)C(=O)O` [L-DOPA, L-dihydroxyphenylalanine], the “TrkB activation in BDNF -/- cortex” value (TrkB [5]) was “strongly triggered TrkB activation”, the “TrkB activation in primary cultured neurons” value (TrkB [6]) was “rapidly induced TrkB activation” and the “TrkB tyrosine phosphorylation/activation in mice” value (TrkB [7]) was “provoked evident TrkB activation”.

With `NCCc1ccc(O)c(O)c1` [dopamine] the “TrkB activation in NET -/- neurons” value (TrkB [8]) was “notable TrkB activation”.

With `COc1ccc2[nH]cc(CCNC(C)=O)c2c1` [melatonin] the “TrkB activation (immunoblotting of neuronal lysates)” value (TrkB [6]) was “not activated” and the “TrkB tyrosine phosphorylation (immunofluorescent staining)” value (TrkB [1]) was “did not”.

`NCCc1c[nH]c2ccc(O)cc12` [serotonin] was tested, and the “TrkB activation (immunoblotting of neuronal lysates)” value (TrkB [6]) was “not activated”, the “TrkB tyrosine phosphorylation (immunofluorescent staining)” value (TrkB [1]) was “did not” and the “TrkB phosphorylation provoked by the substance” value (TrkB F616A) was “had no effect”. The “Activation of TrkB in BDNF-null cortical neurons” value (TrkB [9]) was “had no effect”.
